In US6114390A, “Amino acid derivatives, pharmaceutical compositions containing these compounds and processes for preparing them” (Karl Thomae GmbH, priority 1997, dated 2000):

What was measured:
rat Y4 receptor = biological target: T1, rat Y4 receptor (Rattus norvegicus, UniProt Q63447); experiment: Receptor binding, BHK cells stably transfected with rat Y4 receptor; details: read-out: Affinity IC50, ratY4/BHK
T1 construct: expressed in transfected cells; host or cells: BHK
Description: BHK cells stably transfected with rat Y4 receptor: Cultivation and receptor binding was performed as described for hY1/BHK with exception of incubation medium (25 mM HEPES, 2.5 mM CaCl2, 1.0 mM MgCl2, pH 7.4) and final concentration of cell suspension 5×10^5 cells/ml. 24 h before receptor binding assay 1.0 mM IPTG was added for induction of expression. Incubation time for binding assay: 2 h.

human Y2 receptor = biological target: T2, human Y2 receptor (Homo sapiens, UniProt P49146); experiment: Receptor binding, BHK cells stably expressing the human Y2 receptor; details: read-out: Affinity IC50, humanY2/BHK
T2 construct: expressed in transfected cells; host or cells: BHK
T2 sequence (P49146 1-381): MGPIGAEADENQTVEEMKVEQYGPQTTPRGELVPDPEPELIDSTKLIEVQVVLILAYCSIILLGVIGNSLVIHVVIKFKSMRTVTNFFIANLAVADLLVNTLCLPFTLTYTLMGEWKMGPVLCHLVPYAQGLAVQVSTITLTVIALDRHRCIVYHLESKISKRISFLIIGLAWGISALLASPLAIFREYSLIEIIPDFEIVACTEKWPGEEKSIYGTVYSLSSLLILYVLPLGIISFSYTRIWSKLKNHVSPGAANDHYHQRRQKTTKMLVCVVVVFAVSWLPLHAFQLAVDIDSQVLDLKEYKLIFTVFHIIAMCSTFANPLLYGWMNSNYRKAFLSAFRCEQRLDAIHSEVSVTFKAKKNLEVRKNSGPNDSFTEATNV
Description: BHK cells stably expressing the human Y1 receptor: Cells were grown in DMEM with 4.5 g/l glucose, 10% FCS, 1% PENStrep, 1 mg/ml G-418, 1 mg/ml hygromycin B. 96h before receptor binding assay 1mM IPTG was added in order to induce expression. Confluent cells were removed with 0.06% EDTA/PBS (1 min incubation) and resuspended in 15 ml incubation buffer (MEM/25 mM HEPES +1% BSA, […], 0.1% bacitracin, 3.75 mM CaCl2). After 10 min centrifugation at RT (150×g), the pellet was resuspended in 50 ml incubation buffer, respun and resuspended in 30 ml incubation buffer. After counting, the cells were diluted to a final concentration of 2.5×10^5 cells/ml. Two hundred microliters of this cell suspension was incubated 3 h at RT with 30 pM [^125 I]NPY and increasing concentrations of test compounds in a total volume of […]. The incubation was stopped by 10 min centrifugation, 3000×g at 4° C. The pellet was resuspended with 0.25 ml PBS recentrifuged and the pellet measured in a γ-counter.
BHK cells stably expressing the human Y2 receptor: Assay was performed essentially as described for human Y1 expressing BHK cells.

rat Y5 receptor = biological target: T3, rat Y5 receptor (Rattus norvegicus, UniProt Q63634); experiment: Receptor binding, CHO cells transiently transfected with rat Y5 receptor; details: means ± S.E.M. of 3 to 5 experiments, read-out: Affinity IC50, ratY5/CHO
T3 construct: expressed in transfected cells; host or cells: CHO
T3 sequence (Q63634 1-445): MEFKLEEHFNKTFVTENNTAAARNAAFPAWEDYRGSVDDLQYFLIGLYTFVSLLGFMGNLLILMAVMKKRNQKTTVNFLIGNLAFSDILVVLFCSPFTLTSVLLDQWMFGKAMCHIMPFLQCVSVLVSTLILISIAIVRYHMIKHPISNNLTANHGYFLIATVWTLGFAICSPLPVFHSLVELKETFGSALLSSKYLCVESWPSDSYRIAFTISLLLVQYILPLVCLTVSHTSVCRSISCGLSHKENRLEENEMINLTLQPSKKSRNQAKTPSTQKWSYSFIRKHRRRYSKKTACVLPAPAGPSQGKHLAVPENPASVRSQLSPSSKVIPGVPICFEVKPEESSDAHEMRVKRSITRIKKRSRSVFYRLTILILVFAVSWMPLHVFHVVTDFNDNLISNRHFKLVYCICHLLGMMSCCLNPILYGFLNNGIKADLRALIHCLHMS
Description: CHO cells transiently transfected with human Y4 and rat Y5 receptor: Transfection was performed using the lipofectamine method according to the manufacturer's protocol (GIBCO BRL Eggenstein, Germany) using expression plasmids encoding the rat Y5 or human Y4 receptor, respectively. Receptor binding was performed as described for rat Y1 expressing HEK 293 cells.

NPY = experiment: In vivo NPY-antagonism, NPY-induced blood pressure effects in pithed rats; details: Rattus norvegicus, iv, 1 min, NPY 10 μg/kg i.v., diastolic blood pressure, read-out: pIC50 (in vivo NPY-antagonism) (converted)
Description: After intubation of the trachea the animals are pithed by introducing a blunt needle through the eye into the spinal bone marrow channel. The animals are ventilated with oxygen-rich ambient air using a respiratory pump (20 strokes/minute). A cannula is inserted in the left carotid artery and the arterial blood pressure is measured using a pressure gauge (Braun Melsungen Combitrans) connected to a recording device. For injection purposes a catheter is placed in the left jugular vein through which heparin is administered (200 IU/kg, i.v.). After the blood pressure has been stabilised, the animals are given 2 bolus injections of NPY (10 μg/kg, i.v.) at intervals of 15 minutes. The average increase in diastolic blood pressure is taken as the reference value (=100%). The test substances are injected in increasing doses (4 to 6 doses) at intervals of 15 minutes. One minute after administration of the test substance, NPY is administered.
The antagonistic effect of the test substances is determined by plotting the percentage inhibition of the NPY-induced blood pressure effects against the logarithm of the concentration of active substance.

[1] = Food intake in food-deprived rats; assay type: in vivo, rat; details: 15 μg, bilaterally, PVN
Description: Food-deprivation experiments were conducted with male Chbb:Thom rats weighing between 300 and 350 g. The animals were individually housed for the duration of the study and allowed free access to normal food together with tap water. Food was removed from the animals for 24 hours starting at 8:00 a.m. At the end of the fasting period compound or vehicle was administered to the animals by infusion into the PVN. Food was returned to the animals and their food intake monitored at various time periods during the following 24 hour period. The food intake of animals treated with test compound was calculated as a percentage of the food intake of control animals (i.e., animals treated with vehicle).

T1 sequence (Q63447 whole entry): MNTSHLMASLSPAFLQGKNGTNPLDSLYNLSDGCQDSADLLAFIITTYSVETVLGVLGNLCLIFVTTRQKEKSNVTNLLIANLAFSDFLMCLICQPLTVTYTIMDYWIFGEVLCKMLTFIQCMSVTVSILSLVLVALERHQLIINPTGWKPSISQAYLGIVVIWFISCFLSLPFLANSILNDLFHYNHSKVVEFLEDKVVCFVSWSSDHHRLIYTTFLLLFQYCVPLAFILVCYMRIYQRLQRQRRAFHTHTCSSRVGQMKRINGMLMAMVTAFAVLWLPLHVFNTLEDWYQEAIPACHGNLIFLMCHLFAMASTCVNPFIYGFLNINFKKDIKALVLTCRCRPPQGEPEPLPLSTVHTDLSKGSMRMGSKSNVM

Structure (SMILES): N=C(N)NCCC[C@@H](NC(=O)C(c1ccccc1)c1ccccc1)C(=O)NCc1ccc(CNC(N)=O)cc1 [Compound C]
- IC50 (rat Y4 receptor): > 10 µM
- IC50 (human Y2 receptor): > 1 µM
- IC50 (rat Y5 receptor): 21 µM
- ED50 (NPY): 0.00776 µmol/kg
- food intake in 24 hour food deprived rats (result in words) [1]: significant reduction in food intake
